Results taken from PubChem BioAssay (NCI).
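48-hour exposure; five concentrations; linearly interpolated endpoints. The concentration for 50% growth inhibition is given as GI50. TGI is the concentration that stops growth completely.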

What was measured:
Assay in all cases: DTP human tumour cell line panel, 48 h
RPMI-8226 leukemia = test system: RPMI-8226 leukemia
HCT-116 colon = test system: HCT-116 colon
ACHN renal = test system: ACHN renal
MDA-MB-435 = test system: MDA-MB-435
SF-295 CNS = test system: SF-295 CNS
K-562 leukemia = test system: K-562 leukemia
BT-549 breast = test system: BT-549 breast
SK-MEL-28 melanoma = test system: SK-MEL-28 melanoma
HCC-2998 colon = test system: HCC-2998 colon
UACC-62 melanoma = test system: UACC-62 melanoma
SK-MEL-2 melanoma = test system: SK-MEL-2 melanoma
A549 NSCLC = test system: A549 NSCLC
HOP-92 NSCLC = test system: HOP-92 NSCLC
HCT-15 colon = test system: HCT-15 colon
MCF7 breast = test system: MCF7 breast
NCI-H226 lung = test system: NCI-H226 lung
M14 melanoma = test system: M14 melanoma
HL-60(TB) leukemia = test system: HL-60(TB) leukemia
SNB-19 CNS = test system: SNB-19 CNS
SF-268 CNS = test system: SF-268 CNS
SN12C renal = test system: SN12C renal
SK-OV-3 ovarian = test system: SK-OV-3 ovarian
NCI-H460 lung = test system: NCI-H460 lung
786-0 renal = test system: 786-0 renal
TK-10 renal = test system: TK-10 renal
CCRF-CEM leukemia = test system: CCRF-CEM leukemia
LOX IMVI melanoma = test system: LOX IMVI melanoma
SK-MEL-5 melanoma = test system: SK-MEL-5 melanoma
SNB-75 CNS = test system: SNB-75 CNS
T-47D breast = test system: T-47D breast
OVCAR-4 ovarian = test system: OVCAR-4 ovarian
RXF 393 renal = test system: RXF 393 renal
A498 renal = test system: A498 renal
NCI/ADR-RES ovarian = test system: NCI/ADR-RES ovarian
DU-145 prostate = test system: DU-145 prostate
SR leukemia = test system: SR leukemia
MDA-MB-231 breast = test system: MDA-MB-231 breast
HS 578T breast = test system: HS 578T breast
OVCAR-8 ovarian = test system: OVCAR-8 ovarian
NCI-H522 lung = test system: NCI-H522 lung
SF-539 CNS = test system: SF-539 CNS
HT29 colon = test system: HT29 colon
COLO 205 colon = test system: COLO 205 colon
U251 CNS = test system: U251 CNS
KM12 colon = test system: KM12 colon
PC-3 prostate = test system: PC-3 prostate
EKVX NSCLC = test system: EKVX NSCLC
MOLT-4 leukemia = test system: MOLT-4 leukemia
NCI-H23 lung = test system: NCI-H23 lung
IGROV1 ovarian = test system: IGROV1 ovarian
OVCAR-5 ovarian = test system: OVCAR-5 ovarian
CAKI-1 renal = test system: CAKI-1 renal
SW-620 colon = test system: SW-620 colon
OVCAR-3 ovarian = test system: OVCAR-3 ovarian
HOP-62 NSCLC = test system: HOP-62 NSCLC
UO-31 renal = test system: UO-31 renal
UACC-257 melanoma = test system: UACC-257 melanoma
MALME-3M melanoma = test system: MALME-3M melanoma

COc1cc(OC)cc(C2C(C#N)=C(N)Oc3c2ccc2ccc(O)cc32)c1 (stereo not given)
GI50 (RPMI-8226 leukemia): < 0.01 µM | TGI (RPMI-8226 leukemia): 3.28 µM | GI50 (HCT-116 colon): < 0.01 µM | TGI (HCT-116 colon): 3.88 µM | GI50 (ACHN renal): < 0.01 µM | TGI (ACHN renal): 6.58 µM | GI50 (MDA-MB-435): < 0.01 µM | TGI (MDA-MB-435): < 0.01 µM | GI50 (SF-295 CNS): < 0.01 µM | TGI (SF-295 CNS): 2.67 µM | GI50 (K-562 leukemia): < 0.01 µM | TGI (K-562 leukemia): > 31.7 µM | GI50 (BT-549 breast): < 0.01 µM | TGI (BT-549 breast): 11.5 µM | GI50 (SK-MEL-28 melanoma): 2.27 µM | TGI (SK-MEL-28 melanoma): 9.97 µM | GI50 (HCC-2998 colon): < 0.0166 µM | TGI (HCC-2998 colon): 0.53 µM | GI50 (UACC-62 melanoma): 1.41 µM | TGI (UACC-62 melanoma): 4.42 µM | GI50 (SK-MEL-2 melanoma): 0.587 µM | TGI (SK-MEL-2 melanoma): 7.37 µM | GI50 (A549 NSCLC): < 0.01 µM | TGI (A549 NSCLC): 9.97 µM | GI50 (HOP-92 NSCLC): < 0.01 µM | TGI (HOP-92 NSCLC): 2.95 µM | GI50 (HCT-15 colon): < 0.01 µM | TGI (HCT-15 colon): 1.93 µM | GI50 (MCF7 breast): < 0.01 µM | TGI (MCF7 breast): 11.3 µM | GI50 (NCI-H226 lung): < 0.01 µM | GI50 (M14 melanoma): < 0.01 µM | TGI (M14 melanoma): 5.25 µM | GI50 (HL-60(TB) leukemia): < 0.01 µM | TGI (HL-60(TB) leukemia): < 0.01 µM | GI50 (SNB-19 CNS): < 0.01 µM | TGI (SNB-19 CNS): 11.6 µM | GI50 (SF-268 CNS): < 0.01 µM | TGI (SF-268 CNS): 6.87 µM | GI50 (SN12C renal): < 0.01 µM | TGI (SN12C renal): 5.89 µM | GI50 (SK-OV-3 ovarian): < 0.01 µM | TGI (SK-OV-3 ovarian): 11.4 µM | GI50 (NCI-H460 lung): < 0.01 µM | TGI (NCI-H460 lung): 1.13 µM | GI50 (786-0 renal): < 0.0125 µM | TGI (786-0 renal): 9.23 µM | GI50 (TK-10 renal): 3.36 µM | TGI (TK-10 renal): 19.6 µM | GI50 (CCRF-CEM leukemia): < 0.01 µM | TGI (CCRF-CEM leukemia): 14 µM | GI50 (LOX IMVI melanoma): < 0.01 µM | TGI (LOX IMVI melanoma): 1.63 µM | GI50 (SK-MEL-5 melanoma): < 0.01 µM | TGI (SK-MEL-5 melanoma): < 0.01 µM | GI50 (SNB-75 CNS): < 0.01 µM | TGI (SNB-75 CNS): 6.54 µM | GI50 (T-47D breast): 2.29 µM | TGI (T-47D breast): 22.8 µM | TGI (OVCAR-4 ovarian): 15.6 µM | GI50 (RXF 393 renal): < 0.01 µM | TGI (RXF 393 renal): 4.49 µM | GI50 (A498 renal): < 0.01 µM | TGI (A498 renal): 2.64 µM | GI50 (NCI/ADR-RES ovarian): < 0.01 µM | GI50 (DU-145 prostate): < 0.01 µM | TGI (DU-145 prostate): 3.84 µM | GI50 (SR leukemia): < 0.01 µM | TGI (SR leukemia): 27.1 µM | GI50 (MDA-MB-231 breast): < 0.01 µM | TGI (MDA-MB-231 breast): 5.14 µM | GI50 (HS 578T breast): < 0.01 µM | TGI (HS 578T breast): 9.95 µM | GI50 (OVCAR-8 ovarian): < 0.01 µM | TGI (OVCAR-8 ovarian): 8.29 µM | GI50 (NCI-H522 lung): < 0.01 µM | GI50 (SF-539 CNS): < 0.01 µM | TGI (SF-539 CNS): < 0.01 µM | GI50 (HT29 colon): 0.088 µM | TGI (HT29 colon): 5.83 µM | GI50 (COLO 205 colon): 0.155 µM | TGI (COLO 205 colon): 1.03 µM | GI50 (U251 CNS): < 0.01 µM | TGI (U251 CNS): 1.89 µM | GI50 (KM12 colon): < 0.01 µM | TGI (KM12 colon): 1.34 µM | GI50 (PC-3 prostate): < 0.01 µM | TGI (PC-3 prostate): 13.9 µM | GI50 (EKVX NSCLC): < 0.01 µM | TGI (EKVX NSCLC): 6.66 µM | GI50 (MOLT-4 leukemia): < 0.01 µM | TGI (MOLT-4 leukemia): 12.8 µM | GI50 (NCI-H23 lung): < 0.01 µM | TGI (NCI-H23 lung): 4.74 µM | GI50 (IGROV1 ovarian): < 0.01 µM | TGI (IGROV1 ovarian): 6.61 µM | GI50 (OVCAR-5 ovarian): 0.0521 µM | TGI (OVCAR-5 ovarian): 12 µM | GI50 (CAKI-1 renal): < 0.01 µM | TGI (CAKI-1 renal): 6.08 µM | GI50 (SW-620 colon): < 0.01 µM | TGI (SW-620 colon): 14.4 µM | GI50 (OVCAR-3 ovarian): < 0.01 µM | TGI (OVCAR-3 ovarian): < 0.01 µM | GI50 (HOP-62 NSCLC): < 0.01 µM | TGI (HOP-62 NSCLC): 5.75 µM | GI50 (UO-31 renal): < 0.0112 µM | TGI (UO-31 renal): 6.62 µM | GI50 (UACC-257 melanoma): 2.38 µM | TGI (UACC-257 melanoma): 32.5 µM

O=c1n(-c2ccccc2)c(=O)n2n1C1C=CC2CCCCCC1
TGI (RPMI-8226 leukemia): > 100 µM | TGI (HCT-116 colon): > 100 µM | TGI (ACHN renal): > 100 µM | TGI (MDA-MB-435): > 100 µM | TGI (SF-295 CNS): > 100 µM | TGI (BT-549 breast): > 100 µM | TGI (SK-MEL-28 melanoma): > 100 µM | TGI (HCC-2998 colon): > 100 µM | TGI (UACC-62 melanoma): > 100 µM | TGI (SK-MEL-2 melanoma): > 100 µM | TGI (A549 NSCLC): > 100 µM | TGI (HOP-92 NSCLC): > 100 µM | TGI (HCT-15 colon): > 100 µM | TGI (MCF7 breast): > 100 µM | TGI (NCI-H226 lung): > 100 µM | TGI (M14 melanoma): > 100 µM | TGI (HL-60(TB) leukemia): > 100 µM | TGI (SNB-19 CNS): > 100 µM | TGI (SF-268 CNS): > 100 µM | TGI (SN12C renal): > 100 µM | TGI (SK-OV-3 ovarian): > 100 µM | TGI (NCI-H460 lung): > 100 µM | TGI (786-0 renal): > 100 µM | TGI (TK-10 renal): > 100 µM | TGI (CCRF-CEM leukemia): > 100 µM | TGI (LOX IMVI melanoma): > 100 µM | TGI (SK-MEL-5 melanoma): > 100 µM | TGI (SNB-75 CNS): > 100 µM | TGI (T-47D breast): > 100 µM | TGI (OVCAR-4 ovarian): > 100 µM | TGI (NCI/ADR-RES ovarian): > 100 µM | TGI (DU-145 prostate): > 100 µM | TGI (SR leukemia): > 100 µM | TGI (MDA-MB-231 breast): > 100 µM | TGI (HS 578T breast): > 100 µM | TGI (OVCAR-8 ovarian): > 100 µM | TGI (NCI-H522 lung): > 100 µM | TGI (SF-539 CNS): > 100 µM | TGI (HT29 colon): > 100 µM | TGI (COLO 205 colon): > 100 µM | TGI (U251 CNS): > 100 µM | TGI (KM12 colon): > 100 µM | TGI (PC-3 prostate): > 100 µM | TGI (EKVX NSCLC): > 100 µM | TGI (MOLT-4 leukemia): > 100 µM | TGI (NCI-H23 lung): > 100 µM | TGI (IGROV1 ovarian): > 100 µM | TGI (OVCAR-5 ovarian): > 100 µM | TGI (CAKI-1 renal): > 100 µM | TGI (SW-620 colon): > 100 µM | TGI (OVCAR-3 ovarian): > 100 µM | TGI (MALME-3M melanoma): > 100 µM | TGI (HOP-62 NSCLC): > 100 µM | TGI (UO-31 renal): > 100 µM | TGI (UACC-257 melanoma): > 100 µM
